Experimental data taken from US10030064B2, “Mammalian cell culture processes for protein production” (priority 2009, dated 2018).

Legend:
Assay type in all cases: cell-based, Chinese hamster
CHO cells [1] = assay: Fed-batch 7-L, 500-L and 5000-L bioreactors with dexamethasone in the feed medium (Example 5)
Protocol: The CHO cell line used in this study was subcloned from DG44 parental cells and cultured in a proprietary growth medium.
Bioreactor experiments were performed in 7-L, 500-L and 5000-L bioreactors with starting working volumes around 3 L, 300 L and 3000 L, respectively. All the bioreactor runs started at 37° C. and shifted to lower temperature when cells entered production phase in order to extend the cell culture period. pH, and dissolved oxygen were maintained at 7.05, and 50% air saturation. Agitation rates for 7-L, 500-L and 5000-L scales are 180, 75 and 60 rpm respectively. All the bioreactor experiments were conducted in a fed batch mode with daily feeding of a protein-free medium in order to maintain the glucose and other nutrients at certain levels. […] Samples were taken during the cell culture process and analyzed for cell density, cell viability, substrates and metabolites.
The titer, sialic acid and HMW content assay were performed as described in the previous examples.

CHO cells [2] = assay: Fed-batch 5-L bioreactor CHO culture: sialic acid content and N-linked sialylated species fraction; conditions: 1 μM DEX bolus addition
Protocol: Bioreactor experiments were performed in 5-L bioreactors (Sartorius AG, Goettingen, Germany) with initial working volumes of 1.5 L. Agitation, pH, and dissolved oxygen were controlled at 150 rpm, 7.05, and 50% air saturation, respectively. Temperature was initially controlled at 37° C., but was shifted to a lower temperature during the culture to extend culture viability. The bioreactors were operated in fed-batch mode and were fed daily starting on day 3 with the proprietary feed medium to maintain adequate concentrations for glucose and other nutrients. Samples were taken during the cell culture process and analyzed for cell density, cell viability, substrates and metabolites.
The sialic acid to recombinant protein molar ratio was calculated by determining the sialic acid and recombinant protein concentrations. Sialic acid (SA), including N-Acetylneuraminic (Neu5Ac) and N-glycolylneuraminic acid (Neu5Gc), was released by partial acid hydrolysis. The derivatives were then separated by reversed-phase HPLC to determine sialic acid content. The protein concentrations were determined by UV absorbance at 280 nm. Sialic acid content is reported as molar ratios, which is the total moles of Neu5Ac and Neu5Gc per mole of recombinant glycoprotein. Sialic acid contents are reported as normalized values, which are the actual values divided by an arbitrary value. The same divisor was used to normalize all sialic acid content data in the studies reported here.
High-pH anion-exchange chromatography with pulsed amperometric detection (HPAEC-PAD) was used for the profiling of N-linked oligosaccharides (Base and Spellman 1990; Townsend and Hardy 1991) to provide information on site-specific N-linked glycosylation. N-linked oligosaccharides were cleaved from protein and separated on HPAEC-PAD into four domains based on the amount of sialic acid present. Domain I represents the asialo species. Domains II, III, and IV are sialylated species and represent monosialylated, disialylated, and tri- and tetrasialylated species, respectively. N-linked sialylated species fraction is reported as the percentage of N-linked sialylated species within the total N-linked oligosaccharides species, which includes both asialo and sialylated species. N-linked sialylated species fractions are reported as normalized values, which are the actual values divided by an arbitrary value. The same divisor was used to normalize all N-linked sialylated species fraction data in the studies reported here.
The bioreactors were operated as described in the methods section.

sialidase = assay: Sialidase activity in culture supernatant (Amplex Red Neuraminidase assay); conditions: 1 μM DEX from day 2, absorbance at 560 nm
Protocol: Sialidase activity was analyzed using the Amplex Red Neuraminidase (Sialidase) Assay Kit (Invitrogen, Carlsbad, Calif.). Briefly, neuraminidase in the sample is used to desialylate fetuin. This assay utilizes Amplex Red to detect H2O2 generated by oxidation of the desialylated galactose residues on the fetuin by galactose oxidase. The H2O2, in the presence of HRP, reacts stoichiometrically with Amplex Red reagent to generate the red-fluorescent oxidation product, resorufin 5, which is then analyzed either fluorometrically or spectrophotometrically. In each assay, 50 μL of working solution (100 μM Amplex Red, 0.2 U/mL HRP, 4 U/mL galactose oxidase and 500 μg/mL fetuin) was added into each microplate well containing 50 μL of diluted cell culture supernatant. After 30 minutes incubation at 37° C., samples were analyzed for absorbance at 560 nm using a microplate reader.
As shown in FIG. 2A and FIG. 2B, increased sialidase activity was associated with the decreased cell viabilities in both the DEX-treated and untreated cultures.

## C[C@@H]1C[C@H]2[C@@H]3CCC4=CC(=O)C=C[C@]4(C)[C@@]3(F)[C@@H](O)C[C@]2(C)[C@@]1(O)C(=O)CO [DEX, dexamethasone]
CHO cells [1]; 7-L scale
  Day 14 average viability: 88%
  Day 14 titer (normalized value): 13.2
  Peak sialic acid level (normalized value): 16.0
CHO cells [1]; 500-L scale
  Day 14 average viability: 84%
  Day 14 titer (normalized value): 11.6
  Peak sialic acid level (normalized value): 18.0
CHO cells [1]; 5000-L scale
  Day 14 average viability: 91%
  Day 14 titer (normalized value): 13.6
  Peak sialic acid level (normalized value): 19.0
CHO cells [1]; all scales
  drop of sialic acid by the end of the runs: approximately 2.6 units
CHO cells [2]
  change of sialylated fraction between days 8 to 14: −7.7%
  change of total sialic acid content between days 8 to 14: −7.8%
CHO cells [2]; day 8
  normalized N-linked sialylated species fraction: 97.7±0.9
  normalized total sialic acid content: 17.9±0.1
CHO cells [2]; day 14
  increase of N-linked sialylated species fraction vs control: 15.8%
  increase of total sialic acid content vs control: 16.2%
  normalized N-linked sialylated species fraction: 90.2±1.3
  normalized total sialic acid content: 16.5±0.1
sialidase; day 4
  absorbance measurement of sialidase activity: 0.006±0.002
sialidase; day 10
  absorbance measurement of sialidase activity: 0.024±0.003
